# Results reported in PubChem BioAssay AID2060899 (Molecular Pharmacology Branch, DTP, NCI, 2025).
# Tested on: 565726-208-R1-J5-PDC complex spheroids, growth inhibition
# Assay: Anticancer human tumor 565726-208-R1-J5-PDC patient-derived pancreatic adenocarcinoma cell line growth inhibition [RAS]
# Conditions: for IC50: curve of first compound; for viability, T/C: stronger effect = lower value
# Method in brief: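 Tumour cells grown as complex spheroids with HUVEC endothelial cells and mesenchymal stem cells, treated with RAS pathway inhibitor combinations. Each agent spans half-log steps from near clinical Cmax, or 10 microM where Cmax is unknown.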
# [1] = second compound 0.000949 µM, first compound 0.0316 µM
# [2] = second compound 0.000949 µM, first compound 0.1 µM
# [3] = second compound 0.003 µM, first compound 0.0316 µM
# [4] = second compound 0.003 µM, first compound 0.1 µM
# [5] = second compound 0.00949 µM, first compound 0.0316 µM
# [6] = second compound 0.00949 µM, first compound 0.1 µM
# [7] = second compound 0.03 µM, first compound 0.0316 µM
# [8] = second compound 0.03 µM, first compound 0.1 µM
# [9] = second compound 0.0949 µM, first compound 0.0316 µM
# [10] = second compound 0.0949 µM, first compound 0.1 µM
# [11] = second compound 0.3 µM, first compound 0.0316 µM
# [12] = second compound 0.3 µM, first compound 0.1 µM
# 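Note: spheroids exposed to compounds for seven days before readout.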
# 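Throughout, for viability, T/C: 100% = DMSO vehicle control viability.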
structure (smiles),measurement,setting,value
CC(C)n1nc(-c2ccc3oc(N)nc3c2)c2c(N)ncnc21 + CCn1c(-c2cc(N3CCN(C)CC3)cnc2C(C)OC)c2c3cc(ccc31)-c1csc(n1)CC(NC(=O)C1CC1C)C(=O)N1CCCC(N1)C(=O)OCC(C)(C)C2,IC50,second compound 0.000949 µM,1.9 nM
same,IC50,second compound 0.003 µM,< 0.316 nM
same,IC50,second compound 0.00949 µM,< 0.316 nM
same,IC50,second compound 0.03 µM,< 0.316 nM
same,IC50,second compound 0.0949 µM,< 0.316 nM
same,IC50,second compound 0.3 µM,< 0.316 nM
same,"viability, T/C","second compound 0.000949 µM, first compound 0.000316 µM",65.3%
same,"viability, T/C","second compound 0.000949 µM, first compound 0.001 µM",48.7%
same,"viability, T/C","second compound 0.000949 µM, first compound 0.00316 µM",51.4%
same,"viability, T/C","second compound 0.000949 µM, first compound 0.01 µM",36.5%
same,"viability, T/C",[1],23.8%
same,"viability, T/C",[2],17.7%
same,"viability, T/C","second compound 0.003 µM, first compound 0.000316 µM",48.6%
same,"viability, T/C","second compound 0.003 µM, first compound 0.001 µM",45.6%
same,"viability, T/C","second compound 0.003 µM, first compound 0.00316 µM",38.6%
same,"viability, T/C","second compound 0.003 µM, first compound 0.01 µM",28.4%
same,"viability, T/C",[3],20.7%
same,"viability, T/C",[4],14.1%
same,"viability, T/C","second compound 0.00949 µM, first compound 0.000316 µM",40.4%
same,"viability, T/C","second compound 0.00949 µM, first compound 0.001 µM",35.5%
same,"viability, T/C","second compound 0.00949 µM, first compound 0.00316 µM",30.6%
same,"viability, T/C","second compound 0.00949 µM, first compound 0.01 µM",22.7%
same,"viability, T/C",[5],15.7%
same,"viability, T/C",[6],10.6%
same,"viability, T/C","second compound 0.03 µM, first compound 0.000316 µM",30%
same,"viability, T/C","second compound 0.03 µM, first compound 0.001 µM",31.1%
same,"viability, T/C","second compound 0.03 µM, first compound 0.00316 µM",26%
same,"viability, T/C","second compound 0.03 µM, first compound 0.01 µM",17.5%
same,"viability, T/C",[7],13.2%
same,"viability, T/C",[8],8.25%
same,"viability, T/C","second compound 0.0949 µM, first compound 0.000316 µM",26.7%
same,"viability, T/C","second compound 0.0949 µM, first compound 0.001 µM",25.9%
same,"viability, T/C","second compound 0.0949 µM, first compound 0.00316 µM",20.3%
same,"viability, T/C","second compound 0.0949 µM, first compound 0.01 µM",14.6%
same,"viability, T/C",[9],10.4%
same,"viability, T/C",[10],6.63%
same,"viability, T/C","second compound 0.3 µM, first compound 0.000316 µM",22.7%
same,"viability, T/C","second compound 0.3 µM, first compound 0.001 µM",21.3%
same,"viability, T/C","second compound 0.3 µM, first compound 0.00316 µM",18.9%
same,"viability, T/C","second compound 0.3 µM, first compound 0.01 µM",15.1%
same,"viability, T/C",[11],11.1%
same,"viability, T/C",[12],6.78%
O=C(c1ccc(F)c(F)c1Nc1ccc(I)cc1F)N1CC(O)([C@@H]2CCCCN2)C1,"viability, T/C",compound 0.0316 µM,69.5% [middle of 4 runs]
same,"viability, T/C",compound 0.1 µM,62.4% [middle of 4 runs]
same,"viability, T/C",compound 1 µM,33.5% [middle of 4 runs]
Nc1ccn(C2OC(CO)C(O)C2(F)F)c(=O)n1 (stereo unspecified),"viability, T/C",compound 0.00316 µM,108% [middle of 4 runs]
same,"viability, T/C",compound 0.0316 µM,70.9% [middle of 4 runs]
same,"viability, T/C",compound 0.1 µM,62.3% [middle of 4 runs]
same,"viability, T/C",compound 1 µM,38.8% [middle of 4 runs]
CC(Nc1ccc2c(c1)OCCn1cc(N3C(=O)OCC3C(F)F)nc1-2)C(N)=O (stereo unspecified) + CCn1c(-c2cccnc2C(C)OC)c2c3cc(ccc31)N1CCOC(CC(NC(=O)C(C(C)C)N(C)C(=O)C3(F)CCN(C(=O)C#CC(C)(C)N(C)C)CC3)C(=O)N3CCCC(N3)C(=O)OCC(C)(C)C2)C1,IC50,second compound 0.000949 µM,> 10000 nM
same,IC50,second compound 0.003 µM,> 10000 nM
same,IC50,second compound 0.00949 µM,8980 nM
same,IC50,second compound 0.03 µM,8760 nM
same,IC50,second compound 0.0949 µM,7050 nM
same,IC50,second compound 0.3 µM,2390 nM
same,"viability, T/C",[1],87.5%
same,"viability, T/C",[2],80.8%
same,"viability, T/C","second compound 0.000949 µM, first compound 0.316 µM",77.3%
same,"viability, T/C","second compound 0.000949 µM, first compound 1 µM",72.8%
same,"viability, T/C","second compound 0.000949 µM, first compound 3.16 µM",64.8%
same,"viability, T/C","second compound 0.000949 µM, first compound 10 µM",50.7%
same,"viability, T/C",[3],93.7%
same,"viability, T/C",[4],88.4%
same,"viability, T/C","second compound 0.003 µM, first compound 0.316 µM",75%
same,"viability, T/C","second compound 0.003 µM, first compound 1 µM",75.9%
same,"viability, T/C","second compound 0.003 µM, first compound 3.16 µM",62.9%
same,"viability, T/C","second compound 0.003 µM, first compound 10 µM",52.9%
same,"viability, T/C",[5],92.3%
same,"viability, T/C",[6],91.2%
same,"viability, T/C","second compound 0.00949 µM, first compound 0.316 µM",77.8%
same,"viability, T/C","second compound 0.00949 µM, first compound 1 µM",77.6%
same,"viability, T/C","second compound 0.00949 µM, first compound 3.16 µM",63.7%
same,"viability, T/C","second compound 0.00949 µM, first compound 10 µM",47.7%
same,"viability, T/C",[7],93%
same,"viability, T/C",[8],85.6%
same,"viability, T/C","second compound 0.03 µM, first compound 0.316 µM",80.4%
same,"viability, T/C","second compound 0.03 µM, first compound 1 µM",71.1%
same,"viability, T/C","second compound 0.03 µM, first compound 3.16 µM",55.2%
same,"viability, T/C","second compound 0.03 µM, first compound 10 µM",49.9%
same,"viability, T/C",[9],88.8%
same,"viability, T/C",[10],82.4%
same,"viability, T/C","second compound 0.0949 µM, first compound 0.316 µM",84.4%
same,"viability, T/C","second compound 0.0949 µM, first compound 1 µM",65.9%
same,"viability, T/C","second compound 0.0949 µM, first compound 3.16 µM",63%
same,"viability, T/C","second compound 0.0949 µM, first compound 10 µM",44.8%
same,"viability, T/C",[11],80%
same,"viability, T/C",[12],72.8%
same,"viability, T/C","second compound 0.3 µM, first compound 0.316 µM",72%
same,"viability, T/C","second compound 0.3 µM, first compound 1 µM",63.7%
same,"viability, T/C","second compound 0.3 µM, first compound 3.16 µM",44.9%
same,"viability, T/C","second compound 0.3 µM, first compound 10 µM",38.2%
